Reference: ChEMBL document CHEMBL1143693, “Cancer chemopreventive effects of cycloartane-type and related triterpenoids in in vitro and in vivo models” (J Nat Prod, 2007)
pIC50: −log10 of the molar value.

Tests used:
Human gammaherpesvirus 4 [1] = assay: Inhibition of TPA-induced Epstein-Barr virus early antigen activation in Raji cells after 48 hrs; type: functional, organism-based; conditions: human gammaherpesvirus 4, Raji
[2] = Scavenging activity against NO generation in human Chang liver cells assessed as inhibition of NOR1-activation at 350 nM relative to NOR1; type: functional
Raji = assay: Cell viability of Raji cells at 320 nM; type: functional, Homo sapiens
Human gammaherpesvirus 4 [3] = assay: Inhibition of TPA-induced Epstein-Barr virus early antigen activation assessed as EBV-EA induction in Raji cells at 3.2 nM after 48 hrs relative to TPA; values are per cent of control; conditions: human gammaherpesvirus 4, Raji
Human gammaherpesvirus 4 [4] = assay: Inhibition of TPA-induced Epstein-Barr virus early antigen activation assessed as EBV-EA induction in Raji cells at 32 nM after 48 hrs relative to TPA; values are per cent of control; conditions: human gammaherpesvirus 4, Raji
Human gammaherpesvirus 4 [5] = assay: Inhibition of TPA-induced Epstein-Barr virus early antigen activation assessed as EBV-EA induction in Raji cells at 0.32 nM after 48 hrs relative to TPA; values are per cent of control; conditions: human gammaherpesvirus 4, Raji
Human gammaherpesvirus 4 [6] = assay: Inhibition of TPA-induced Epstein-Barr virus early antigen activation assessed as EBV-EA induction in Raji cells at 320 nM after 48 hrs relative to TPA; values are per cent of control; conditions: human gammaherpesvirus 4, Raji

## CC(=O)O[C@H]1CC[C@]23C[C@]24CC[C@]2(C)[C@@H]([C@H](C)CCC=C(C)C)CC[C@@]2(C)[C@@H]4CC[C@H]3C1(C)C [CYCLOARTENOL ACETATE]
Human gammaherpesvirus 4 [1]
  pIC50: 8.00
[2]
  Activity: 1.8
Raji
  Activity: 70%
Human gammaherpesvirus 4 [3]
  level, % of control at 0.0032 µM: 73.1%
Human gammaherpesvirus 4 [4]
  level, % of control at 0.032 µM: 32.3%
Human gammaherpesvirus 4 [5]
  level, % of control at 0.00032 µM: 96.9%
Human gammaherpesvirus 4 [6]
  level, % of control at 0.32 µM: 0%

## CC(C)C(=O)CC[C@@H](C)[C@H]1CC[C@@]2(C)[C@@H]3CC[C@H]4C(C)(C)[C@@H](O)CC[C@@]45C[C@@]35CC[C@]12C
Human gammaherpesvirus 4 [1]
  pIC50: 8.09
[2]
  Activity: 2
Raji
  Activity: 70%
Human gammaherpesvirus 4 [3]
  level, % of control at 0.0032 µM: 62.7%
Human gammaherpesvirus 4 [4]
  level, % of control at 0.032 µM: 19.8%
Human gammaherpesvirus 4 [5]
  level, % of control at 0.00032 µM: 90.5%
Human gammaherpesvirus 4 [6]
  level, % of control at 0.32 µM: 0%

## CC(C)CCC[C@@H](C)[C@H]1CC[C@@]2(C)[C@@H]3CC[C@H]4C(C)(C)[C@@H](O)CC[C@@]45C[C@@]35CC[C@]12C [CYCLOARTANOL]
Human gammaherpesvirus 4 [1]
  pIC50: 8.03
[2]
  Activity: 1.8
Raji
  Activity: 70%
Human gammaherpesvirus 4 [3]
  level, % of control at 0.0032 µM: 70.2%
Human gammaherpesvirus 4 [4]
  level, % of control at 0.032 µM: 30.2%
Human gammaherpesvirus 4 [5]
  level, % of control at 0.00032 µM: 95%
Human gammaherpesvirus 4 [6]
  level, % of control at 0.32 µM: 0%

## C[C@H](C/C=C/C(C)(C)O)[C@H]1CC[C@@]2(C)[C@@H]3CC[C@H]4C(C)(C)C(=O)CC[C@@]45C[C@@]35CC[C@]12C
Human gammaherpesvirus 4 [1]
  pIC50: 8.07
[2]
  Activity: 1.9
Raji
  Activity: 70%
Human gammaherpesvirus 4 [3]
  level, % of control at 0.0032 µM: 67.2%
Human gammaherpesvirus 4 [4]
  level, % of control at 0.032 µM: 20%
Human gammaherpesvirus 4 [5]
  level, % of control at 0.00032 µM: 90.1%
Human gammaherpesvirus 4 [6]
  level, % of control at 0.32 µM: 0%

## CC(C)=CCC[C@@H](C)[C@H]1CC[C@@]2(C)[C@@H]3CC[C@H]4[C@H](C)[C@@H](O)CC[C@@]45C[C@@]35CC[C@]12C
Human gammaherpesvirus 4 [1]
  pIC50: 8.02
[2]
  Activity: 1.8
Raji
  Activity: 70%
Human gammaherpesvirus 4 [3]
  level, % of control at 0.0032 µM: 71.4%
Human gammaherpesvirus 4 [4]
  level, % of control at 0.032 µM: 30.2%
Human gammaherpesvirus 4 [5]
  level, % of control at 0.00032 µM: 94.6%
Human gammaherpesvirus 4 [6]
  level, % of control at 0.32 µM: 0%

## C=C(C)[C@H](O)CC[C@@H](C)[C@H]1CC[C@@]2(C)[C@@H]3CC[C@H]4C(C)(C)[C@@H](O)CC[C@@]45C[C@@]35CC[C@]12C
Human gammaherpesvirus 4 [1]
  pIC50: 8.19
[2]
  Activity: 2
Raji
  Activity: 70%
Human gammaherpesvirus 4 [3]
  level, % of control at 0.0032 µM: 57.8%
Human gammaherpesvirus 4 [4]
  level, % of control at 0.032 µM: 15%
Human gammaherpesvirus 4 [5]
  level, % of control at 0.00032 µM: 84.4%
Human gammaherpesvirus 4 [6]
  level, % of control at 0.32 µM: 0%

## CC(C)=CCC[C@@H](C)[C@H]1CC[C@@]2(C)[C@@H]3CC[C@H]4C(C)(C)[C@@H](O)CC[C@@]45C[C@@]35CC[C@]12C [CYCLOARTENOL]
Human gammaherpesvirus 4 [1]
  pIC50: 8.06
[2]
  Activity: 1.6
Raji
  Activity: 70%
Human gammaherpesvirus 4 [3]
  level, % of control at 0.0032 µM: 69.9%
Human gammaherpesvirus 4 [4]
  level, % of control at 0.032 µM: 25.8%
Human gammaherpesvirus 4 [5]
  level, % of control at 0.00032 µM: 93.5%
Human gammaherpesvirus 4 [6]
  level, % of control at 0.32 µM: 0%

## CC(C)=CCC[C@@H](C)[C@H]1CC[C@@]2(C)[C@@H]3CC[C@H]4C(C)(C)[C@H](O)CC[C@@]45C[C@@]35CC[C@]12C
Human gammaherpesvirus 4 [1]
  pIC50: 8.04
[2]
  Activity: 1.8
Raji
  Activity: 70%
Human gammaherpesvirus 4 [3]
  level, % of control at 0.0032 µM: 70.3%
Human gammaherpesvirus 4 [4]
  level, % of control at 0.032 µM: 29.7%
Human gammaherpesvirus 4 [5]
  level, % of control at 0.00032 µM: 93.7%
Human gammaherpesvirus 4 [6]
  level, % of control at 0.32 µM: 0%

## CC(C)=CCC[C@@H](C)C1=CC[C@@]2(C)[C@@H]3CC[C@H]4C(C)(C)[C@@H](O)CC[C@@]45C[C@@]35CC[C@]12C [CIMICIFUGENOL]
Human gammaherpesvirus 4 [1]
  pIC50: 8.05
[2]
  Activity: 1.8
Raji
  Activity: 70%
Human gammaherpesvirus 4 [3]
  level, % of control at 0.0032 µM: 72.6%
Human gammaherpesvirus 4 [4]
  level, % of control at 0.032 µM: 26.8%
Human gammaherpesvirus 4 [5]
  level, % of control at 0.00032 µM: 93.8%
Human gammaherpesvirus 4 [6]
  level, % of control at 0.32 µM: 0%

## C=C(CC[C@@H](C)[C@H]1CC[C@@]2(C)[C@@H]3CC[C@H]4[C@H](C)[C@@H](O)CC[C@@]45C[C@@]35CC[C@]12C)C(C)C [CYCLOEUCALENOL]
Human gammaherpesvirus 4 [1]
  pIC50: 8.05
[2]
  Activity: 1.7
Raji
  Activity: 70%
Human gammaherpesvirus 4 [3]
  level, % of control at 0.0032 µM: 68.1%
Human gammaherpesvirus 4 [4]
  level, % of control at 0.032 µM: 26.5%
Human gammaherpesvirus 4 [5]
  level, % of control at 0.00032 µM: 94.8%
Human gammaherpesvirus 4 [6]
  level, % of control at 0.32 µM: 0%

## CC(C)CCC[C@@H](C)C1=CC[C@@]2(C)[C@@H]3CC[C@H]4C(C)(C)[C@@H](O)CC[C@@]45C[C@@]35CC[C@]12C
Human gammaherpesvirus 4 [1]
  pIC50: 8.00
[2]
  Activity: 1.6
Raji
  Activity: 70%
Human gammaherpesvirus 4 [3]
  level, % of control at 0.0032 µM: 72.6%
Human gammaherpesvirus 4 [4]
  level, % of control at 0.032 µM: 32.1%
Human gammaherpesvirus 4 [5]
  level, % of control at 0.00032 µM: 96.5%
Human gammaherpesvirus 4 [6]
  level, % of control at 0.32 µM: 0%

## C[C@H](CCC(O)C(C)(C)O)[C@H]1CC[C@@]2(C)[C@@H]3CC[C@H]4C(C)(C)C(=O)CC[C@@]45C[C@@]35CC[C@]12C (stereo partly drawn)
Human gammaherpesvirus 4 [1]
  pIC50: 8.13
[2]
  Activity: 2
Raji
  Activity: 70%
Human gammaherpesvirus 4 [3]
  level, % of control at 0.0032 µM: 66.8%
Human gammaherpesvirus 4 [4]
  level, % of control at 0.032 µM: 19.1%
Human gammaherpesvirus 4 [5]
  level, % of control at 0.00032 µM: 88.4%
Human gammaherpesvirus 4 [6]
  level, % of control at 0.32 µM: 0%

## C[C@@H]1[C@@H](O)CC[C@]23C[C@]24CC[C@]2(C)[C@@H]([C@H](C)CC[C@H](O)C(C)(C)O)CC[C@@]2(C)[C@@H]4CC[C@@H]13
Human gammaherpesvirus 4 [1]
  pIC50: 8.17
[2]
  Activity: 1.7
Raji
  Activity: 70%
Human gammaherpesvirus 4 [3]
  level, % of control at 0.0032 µM: 61.3%
Human gammaherpesvirus 4 [4]
  level, % of control at 0.032 µM: 17.1%
Human gammaherpesvirus 4 [5]
  level, % of control at 0.00032 µM: 88.8%
Human gammaherpesvirus 4 [6]
  level, % of control at 0.32 µM: 0%

## C=C(CC[C@@H](C)[C@H]1CC[C@@]2(C)[C@@H]3CC[C@H]4[C@H](C)[C@@H](OC(C)=O)CC[C@@]45C[C@@]35CC[C@]12C)C(C)C [CYCLOEUCALENOL ACETATE]
Human gammaherpesvirus 4 [1]
  pIC50: 8.00
[2]
  Activity: 1.5
Raji
  Activity: 70%
Human gammaherpesvirus 4 [3]
  level, % of control at 0.0032 µM: 73.5%
Human gammaherpesvirus 4 [4]
  level, % of control at 0.032 µM: 32.4%
Human gammaherpesvirus 4 [5]
  level, % of control at 0.00032 µM: 96.2%
Human gammaherpesvirus 4 [6]
  level, % of control at 0.32 µM: 0%

## COC(C)(C)[C@@H](O)CC[C@@H](C)[C@H]1CC[C@@]2(C)[C@@H]3CC[C@H]4C(C)(C)[C@@H](O)CC[C@@]45C[C@@]35CC[C@]12C
Human gammaherpesvirus 4 [1]
  pIC50: 8.02
[2]
  Activity: 1.8
Raji
  Activity: 70%
Human gammaherpesvirus 4 [3]
  level, % of control at 0.0032 µM: 74.5%
Human gammaherpesvirus 4 [4]
  level, % of control at 0.032 µM: 30.7%
Human gammaherpesvirus 4 [5]
  level, % of control at 0.00032 µM: 95.9%
Human gammaherpesvirus 4 [6]
  level, % of control at 0.32 µM: 0%

## COc1cc(/C=C/C(=O)O[C@H]2CC[C@]34C[C@]35CC[C@]3(C)[C@@H]([C@H](C)CCC=C(C)C)CC[C@@]3(C)[C@@H]5CC[C@H]4C2(C)C)ccc1O [GAMMA ORYZANOL]
Human gammaherpesvirus 4 [1]
  pIC50: 7.80
[2]
  Activity: 1.5
Raji
  Activity: 70%
Human gammaherpesvirus 4 [3]
  level, % of control at 0.0032 µM: 84.7%
Human gammaherpesvirus 4 [4]
  level, % of control at 0.032 µM: 56%
Human gammaherpesvirus 4 [5]
  level, % of control at 0.00032 µM: 100%
Human gammaherpesvirus 4 [6]
  level, % of control at 0.32 µM: 19.7%

## C=C(C)[C@@H](CC)CC[C@@H](C)[C@H]1CC[C@@]2(C)[C@@H]3CC[C@H]4C(C)(C)[C@@H](O)CC[C@@]45C[C@@]35CC[C@]12C [POLYSTHICOL (24S)]
Human gammaherpesvirus 4 [1]
  pIC50: 8.06
[2]
  Activity: 2
Raji
  Activity: 70%
Human gammaherpesvirus 4 [3]
  level, % of control at 0.0032 µM: 69.1%
Human gammaherpesvirus 4 [4]
  level, % of control at 0.032 µM: 28.9%
Human gammaherpesvirus 4 [5]
  level, % of control at 0.00032 µM: 93.1%
Human gammaherpesvirus 4 [6]
  level, % of control at 0.32 µM: 0%

## C=C(CC[C@@H](C)[C@H]1CC[C@@]2(C)[C@@H]3CC[C@H]4[C@H](C)C(=O)CC[C@@]45C[C@@]35CC[C@]12C)C(C)C [CYCLOEUCALENONE]
Human gammaherpesvirus 4 [1]
  pIC50: 7.99
[2]
  Activity: 1.5
Raji
  Activity: 70%
Human gammaherpesvirus 4 [3]
  level, % of control at 0.0032 µM: 74%
Human gammaherpesvirus 4 [4]
  level, % of control at 0.032 µM: 33.4%
Human gammaherpesvirus 4 [5]
  level, % of control at 0.00032 µM: 96.2%
Human gammaherpesvirus 4 [6]
  level, % of control at 0.32 µM: 0%

## CC(C)=CCC[C@@H](C)[C@H]1CC[C@@]2(C)[C@@H]3CC[C@H]4C(C)(C)C(=O)CC[C@@]45C[C@@]35CC[C@]12C [CYCLOARTENONE]
Human gammaherpesvirus 4 [1]
  pIC50: 8.06
[2]
  Activity: 1.5
Raji
  Activity: 70%
Human gammaherpesvirus 4 [3]
  level, % of control at 0.0032 µM: 71.3%
Human gammaherpesvirus 4 [4]
  level, % of control at 0.032 µM: 24.6%
Human gammaherpesvirus 4 [5]
  level, % of control at 0.00032 µM: 92.6%
Human gammaherpesvirus 4 [6]
  level, % of control at 0.32 µM: 2.3%
